± gives the standard deviation of the averaged measurements.
Test system: MCF7
Assay: HRG-induced Akt activation (dPAkt = log2 pAkt/Akt HRG-stimulated minus log2 pAkt/Akt basal) (log2 ratio difference); higher = stronger HRG-induced Akt(T308) phosphorylation
Details: miRNA mimic concentration 10 nM; time after transfection 72 h; heregulin 10 ng/ml; stimulation time 1 h
In short: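 MCF7 cells ([…], 96-well plates) carrying one of 879 miRNA mimics, transfected at 10 nM final with Lipofectamine RNAiMax in two biological replicates, were stimulated after 72 h with 10 ng/ml heregulin-beta1 for 1 h or left unstimulated. Phospho-Akt(T308) and total Akt in cells fixed with 4% PFA were read by In-Cell Western on an Odyssey and corrected for column-wise fixation decay to give log2(pAkt/Akt). Heregulin-induced Akt activation is the replicate mean of stimulated minus unstimulated ratios.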

Question: Which “HRG-induced Akt activation (log2)” value does the source give for CUGUACAGCCUCCUAGCUUUCC here?
Answer: 2.26 ± 0.15

Question: With UGAGGUAGUAGGUUGUGUGGUU as the sequence, how does the “HRG-induced Akt activation (log2)” value read?
Answer: 1.08 ± 0.14

Question: For UAUGUAAUAUGGUCCACAUCUU, which “HRG-induced Akt activation (log2)” value is on record?
Answer: 2.01 ± 0.2

Question: How did the “HRG-induced Akt activation (log2)” value turn out when UUGGGAUCAUUUUGCAUCCAUA was run?
Answer: 1.13 ± 0.3

Question: Which “HRG-induced Akt activation (log2)” value does the source give for UGGUAGACUAUGGAACGUAGG here?
Answer: 0.953 ± 0.95

Question: With UAAGUGCUUCCAUGCUU as the sequence, how does the “HRG-induced Akt activation (log2)” value read?
Answer: 0.459 ± 0.22

Question: For AAAAACUGUAAUUACUUUU, which “HRG-induced Akt activation (log2)” value is on record?
Answer: 1.15 ± 0.3

Question: GAACGCGCUUCCCUAUAGAGGGU was tested. Which “HRG-induced Akt activation (log2)” value did it give?
Answer: 1.42 ± 0.13

Question: With UGUCACUCGGCUCGGCCCACUAC as the sequence, how does the “HRG-induced Akt activation (log2)” value read?
Answer: 1.17 ± 0.18

Question: AUUCUAAUUUCUCCACGUCUUU was tested. Which “HRG-induced Akt activation (log2)” value did it give?
Answer: 1.44 ± 0.29

Question: UAGGCAGUGUCAUUAGCUGAUUG was tested. Which “HRG-induced Akt activation (log2)” value did it give?
Answer: 1.69 ± 0.15

Question: Which “HRG-induced Akt activation (log2)” value does the source give for AGAGGUAGUAGGUUGCAUAGUU here?
Answer: 1.08 ± 0.21

Question: How did the “HRG-induced Akt activation (log2)” value turn out when ACGGAUGUUUGAGCAUGUGCUA was run?
Answer: 2.15 ± 0.13

Question: For UGAGAACUGAAUUCCAUAGGCU, which “HRG-induced Akt activation (log2)” value is on record?
Answer: 2.34 ± 0.1

Question: AAAAGUACUUGCGGAUUUUGCU was tested. Which “HRG-induced Akt activation (log2)” value did it give?
Answer: 1.58 ± 0.21

Question: ACUCUUUCCCUGUUGCACUAC was tested. Which “HRG-induced Akt activation (log2)” value did it give?
Answer: 1.677 ± 0.0095

Question: Which “HRG-induced Akt activation (log2)” value does the source give for CACUCAGCCUUGAGGGCACUUUC here?
Answer: 0.664 ± 0.32

Question: AGGUUGACAUACGUUUCCC was tested. Which “HRG-induced Akt activation (log2)” value did it give?
Answer: 1.43 ± 0.13

Question: How did the “HRG-induced Akt activation (log2)” value turn out when UUCACAGUGGCUAAGUUCCGC was run?
Answer: 1.73 ± 0.22

Question: Which “HRG-induced Akt activation (log2)” value does the source give for GGGAGCCAGGAAGUAUUGAUGU here?
Answer: 1.82 ± 0.069

Question: With UAGUGCAAUAUUGCUUAUAGGGU as the sequence, how does the “HRG-induced Akt activation (log2)” value read?
Answer: 0.808 ± 0.069

Question: With UACUCAGGAGAGUGGCAAUCAC as the sequence, how does the “HRG-induced Akt activation (log2)” value read?
Answer: 1.1 ± 0.15

Question: With AGGGGUGCUAUCUGUGAUUGA as the sequence, how does the “HRG-induced Akt activation (log2)” value read?
Answer: 1.68 ± 0.19

Question: Which “HRG-induced Akt activation (log2)” value does the source give for UGACAACUAUGGAUGAGCUCU here?
Answer: 1.53 ± 0.29

Question: For CUGUUGCCACUAACCUCAACCU, which “HRG-induced Akt activation (log2)” value is on record?
Answer: 1.07 ± 0.11

Question: How did the “HRG-induced Akt activation (log2)” value turn out when UCGGGGAUCAUCAUGUCACGAGA was run?
Answer: 1.93 ± 0.17

Question: AGGGUAAGCUGAACCUCUGAU was tested. Which “HRG-induced Akt activation (log2)” value did it give?
Answer: 1.51 ± 0.17

Question: For AGAAGGAAAUUGAAUUCAUUUA, which “HRG-induced Akt activation (log2)” value is on record?
Answer: 2.39 ± 0.29

Question: For GGAUAUCAUCAUAUACUGUAAG, which “HRG-induced Akt activation (log2)” value is on record?
Answer: 1.6 ± 0.044

Question: CCAGUAUUAACUGUGCUGCUGA was tested. Which “HRG-induced Akt activation (log2)” value did it give?
Answer: 1.55 ± 0.32

Question: CUGUACAGGCCACUGCCUUGC was tested. Which “HRG-induced Akt activation (log2)” value did it give?
Answer: 1.88 ± 0.41

Question: Which “HRG-induced Akt activation (log2)” value does the source give for CACGCUCAUGCACACACCCACA here?
Answer: 1.68 ± 0.14

Question: With CGUGUUCACAGCGGACCUUGAU as the sequence, how does the “HRG-induced Akt activation (log2)” value read?
Answer: 1.89 ± 0.39

Question: How did the “HRG-induced Akt activation (log2)” value turn out when AACCAGCACCCCAACUUUGGAC was run?
Answer: 2.3 ± 0.14

Question: How did the “HRG-induced Akt activation (log2)” value turn out when UCAGAACAAAUGCCGGUUCCCAGA was run?
Answer: 1.23 ± 0.54

Question: Which “HRG-induced Akt activation (log2)” value does the source give for AUAAGACGAGCAAAAAGCUUGU here?
Answer: 1.73 ± 0.05

Question: With AUCGCUGCGGUUGCGAGCGCUGU as the sequence, how does the “HRG-induced Akt activation (log2)” value read?
Answer: 1.63 ± 0.063

Question: How did the “HRG-induced Akt activation (log2)” value turn out when GUAGAUUCUCCUUCUAUGAGUA was run?
Answer: 1.35 ± 0.17

Question: Which “HRG-induced Akt activation (log2)” value does the source give for UUGCAGCUGCCUGGGAGUGACUUC here?
Answer: 0.96 ± 0.045

Question: With CACCCGGCUGUGUGCACAUGUGC as the sequence, how does the “HRG-induced Akt activation (log2)” value read?
Answer: 1.53 ± 0.48

Question: UCGGAUCCGUCUGAGCUUGGCU was tested. Which “HRG-induced Akt activation (log2)” value did it give?
Answer: 1.88 ± 0.18

Question: For UUAUAAUACAACCUGAUAAGUG, which “HRG-induced Akt activation (log2)” value is on record?
Answer: 1.04 ± 0.33

Question: How did the “HRG-induced Akt activation (log2)” value turn out when ACUUAAACGUGGAUGUACUUGCU was run?
Answer: 1.93 ± 0.26

Question: UGUGCAAAUCUAUGCAAAACUGA was tested. Which “HRG-induced Akt activation (log2)” value did it give?
Answer: 0.8263 ± 0.0053

Question: Which “HRG-induced Akt activation (log2)” value does the source give for UAAUCCUUGCUACCUGGGUGAGA here?
Answer: 1.79 ± 0.047

Question: CACCAGGCAUUGUGGUCUCC was tested. Which “HRG-induced Akt activation (log2)” value did it give?
Answer: 2.13 ± 0.28

Question: How did the “HRG-induced Akt activation (log2)” value turn out when CAACUAGACUGUGAGCUUCUAG was run?
Answer: 2.04 ± 0.049

Question: For CCCCCACAACCGCGCUUGACUAGCU, which “HRG-induced Akt activation (log2)” value is on record?
Answer: 1.4 ± 0.091

Question: AAGCCUGCCCGGCUCCUCGGG was tested. Which “HRG-induced Akt activation (log2)” value did it give?
Answer: 1.81 ± 0.26

Question: Which “HRG-induced Akt activation (log2)” value does the source give for UAGCACCAUCUGAAAUCGGUUA here?
Answer: 1.24 ± 0.077

Question: Which “HRG-induced Akt activation (log2)” value does the source give for AGUUCUUCAGUGGCAAGCUUUA here?
Answer: 0.966 ± 0.66

Question: With CUGGCCCUCUCUGCCCUUCCGU as the sequence, how does the “HRG-induced Akt activation (log2)” value read?
Answer: 1.18 ± 0.4

Question: For GUGGGCGGGGGCAGGUGUGUG, which “HRG-induced Akt activation (log2)” value is on record?
Answer: 1.13 ± 0.44

Question: How did the “HRG-induced Akt activation (log2)” value turn out when UCAGGCCAGGCACAGUGGCUCA was run?
Answer: 1.57 ± 0.41

Question: UAACAGUCUACAGCCAUGGUCG was tested. Which “HRG-induced Akt activation (log2)” value did it give?
Answer: 1.37 ± 0.26

Question: With CGGGCGUGGUGGUGGGGG as the sequence, how does the “HRG-induced Akt activation (log2)” value read?
Answer: 1.56 ± 0.11

Question: Which “HRG-induced Akt activation (log2)” value does the source give for CAGUGCCUCGGCAGUGCAGCCC here?
Answer: 1.45 ± 0.064

Question: CUAUACAAUCUACUGUCUUUC was tested. Which “HRG-induced Akt activation (log2)” value did it give?
Answer: 1.11 ± 0.051

Question: CUGCCCUGGCCCGAGGGACCGA was tested. Which “HRG-induced Akt activation (log2)” value did it give?
Answer: 1.21 ± 0.096

Question: AACGCACUUCCCUUUAGAGUGU was tested. Which “HRG-induced Akt activation (log2)” value did it give?
Answer: 1.23 ± 0.16

Question: With CAAAGUGCUCAUAGUGCAGGUAG as the sequence, how does the “HRG-induced Akt activation (log2)” value read?
Answer: 1.34 ± 0.39

Question: For UAAUACUGCCUGGUAAUGAUGA, which “HRG-induced Akt activation (log2)” value is on record?
Answer: 1.65 ± 0.49

Question: For GCUACUUCACAACACCAGGGCC, which “HRG-induced Akt activation (log2)” value is on record?
Answer: 1.67 ± 0.3

Question: UGAGACCUCUGGGUUCUGAGCU was tested. Which “HRG-induced Akt activation (log2)” value did it give?
Answer: 1.95 ± 0.023

Question: With AGGAAUGUUCCUUCUUUGCC as the sequence, how does the “HRG-induced Akt activation (log2)” value read?
Answer: 1.91 ± 0.039

Question: UUCCUAUGCAUAUACUUCUUUG was tested. Which “HRG-induced Akt activation (log2)” value did it give?
Answer: 1.11 ± 0.32

Question: UGUCUGCCCGCAUGCCUGCCUCU was tested. Which “HRG-induced Akt activation (log2)” value did it give?
Answer: 2.32 ± 0.13

Question: How did the “HRG-induced Akt activation (log2)” value turn out when AGGCAAGAUGCUGGCAUAGCU was run?
Answer: 1.18 ± 0.13

Question: How did the “HRG-induced Akt activation (log2)” value turn out when UAUGUCUGCUGACCAUCACCUU was run?
Answer: 2.316 ± 0.0055

Question: With AAUCAUACAGGGACAUCCAGUU as the sequence, how does the “HRG-induced Akt activation (log2)” value read?
Answer: 1.86 ± 0.16
